The source of these data is PMC9072010, “Synthesis and bioevaluation of thienopyrimidines bearing a pyrazoline unit as selective PI3Kα inhibitors” (RSC Advances, 2019).

The target in experiment [1] is PI3Kα (Homo sapiens, UniProt P42336). Nature of the experiment: Kinase-Glo Luminescent Kinase Assay, PI3Kα. The following applies: average of two separate determinations. The class given is biochemical. How it is done: The experiment was conducted according to the method reported by our research group.[17]
Experiment [2] deals with MCF-7 cancer cell lines. As to the kind of experiment: MTT antiproliferative assay, MCF-7. The experiment is classed as cell-based, human. The following applies: Homo sapiens, MCF7, Table 2, average of two separate determinations. In general terms: Tetrazolium assays rely on reduction of a dye to a coloured formazan, in cell work by metabolically active cells.
Experiment [3] addresses mTOR (Homo sapiens, UniProt P42345). As to the kind of experiment: Kinase-Glo Luminescent Kinase Assay, mTOR. The following applies: average of two separate determinations. The class given is biochemical. For orientation: Kinase-Glo reads ATP consumption through a luciferase reaction.
In experiment [4] the test system is A549 cancer cell lines. As to the kind of experiment: MTT antiproliferative assay, A549. The class given is cell-based, human.
Experiment [5] deals with A549 cells. Nature of the experiment: Annexin V-FITC/PI double staining by flow cytometry. The experiment is classed as cell-based, human. On the technique in general: Flow cytometry measures light scatter and fluorescence of single cells or particles in a stream.
Experiment [6] has as its system A549 cancer cell lines. As to the kind of experiment: Acridine orange (AO) single staining. The experiment is classed as cell-based, human. As to conditions: A549, fluorescence microscopy, Fig. 4. As to the method: In order to investigate whether the target compound 13f could induce the apoptosis of A549 cancer cell lines, acridine orange (AO) staining assay was carried out. […] But in the test group (Fig. 4b), the cell shape was abnormal with cell shrinkage, chromatin condensation after compound 13f acted on the A549 cells.
The cancer cell apoptotic of target compound 13f were evaluated with A549 cancer cell lines by acridine orange single staining. The experiment was conducted according to the method reported by our research group.[18]

The test system of experiment [7] is HepG2 cancer cell lines. Nature of the experiment: MTT antiproliferative assay, HepG2. The class given is cell-based, human. The following applies: Homo sapiens, HepG2, Table 2, average of two separate determinations.

Sequence of PI3Kα (P42336 whole entry): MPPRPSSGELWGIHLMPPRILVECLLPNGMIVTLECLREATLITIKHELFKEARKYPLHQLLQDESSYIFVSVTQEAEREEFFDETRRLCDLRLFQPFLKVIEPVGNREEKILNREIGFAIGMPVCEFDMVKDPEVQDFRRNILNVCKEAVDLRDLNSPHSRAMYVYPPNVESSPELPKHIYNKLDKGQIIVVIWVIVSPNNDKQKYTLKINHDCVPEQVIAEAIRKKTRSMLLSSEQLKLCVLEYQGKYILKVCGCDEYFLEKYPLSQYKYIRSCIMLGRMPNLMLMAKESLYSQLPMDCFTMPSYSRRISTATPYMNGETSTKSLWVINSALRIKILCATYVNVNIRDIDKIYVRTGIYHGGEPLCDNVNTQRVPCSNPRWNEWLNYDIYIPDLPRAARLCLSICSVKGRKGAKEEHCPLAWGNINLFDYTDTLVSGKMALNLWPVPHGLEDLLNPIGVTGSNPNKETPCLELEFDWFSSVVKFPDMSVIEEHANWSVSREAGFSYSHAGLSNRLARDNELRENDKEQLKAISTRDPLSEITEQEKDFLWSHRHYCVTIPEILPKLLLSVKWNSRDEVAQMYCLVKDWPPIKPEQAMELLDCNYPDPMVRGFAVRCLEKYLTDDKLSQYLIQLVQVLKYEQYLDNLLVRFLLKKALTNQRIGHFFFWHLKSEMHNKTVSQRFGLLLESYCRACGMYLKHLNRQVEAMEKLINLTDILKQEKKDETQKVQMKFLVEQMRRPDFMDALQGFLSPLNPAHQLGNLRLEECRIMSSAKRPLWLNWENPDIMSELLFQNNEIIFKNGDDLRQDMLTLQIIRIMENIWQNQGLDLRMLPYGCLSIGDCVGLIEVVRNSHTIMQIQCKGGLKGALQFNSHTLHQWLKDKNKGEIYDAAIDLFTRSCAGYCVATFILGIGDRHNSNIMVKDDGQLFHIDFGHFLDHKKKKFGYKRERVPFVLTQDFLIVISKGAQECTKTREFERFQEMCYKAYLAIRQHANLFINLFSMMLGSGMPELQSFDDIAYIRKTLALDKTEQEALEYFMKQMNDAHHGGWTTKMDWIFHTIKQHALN
Sequence of PI3Kα (P27986 whole entry partner): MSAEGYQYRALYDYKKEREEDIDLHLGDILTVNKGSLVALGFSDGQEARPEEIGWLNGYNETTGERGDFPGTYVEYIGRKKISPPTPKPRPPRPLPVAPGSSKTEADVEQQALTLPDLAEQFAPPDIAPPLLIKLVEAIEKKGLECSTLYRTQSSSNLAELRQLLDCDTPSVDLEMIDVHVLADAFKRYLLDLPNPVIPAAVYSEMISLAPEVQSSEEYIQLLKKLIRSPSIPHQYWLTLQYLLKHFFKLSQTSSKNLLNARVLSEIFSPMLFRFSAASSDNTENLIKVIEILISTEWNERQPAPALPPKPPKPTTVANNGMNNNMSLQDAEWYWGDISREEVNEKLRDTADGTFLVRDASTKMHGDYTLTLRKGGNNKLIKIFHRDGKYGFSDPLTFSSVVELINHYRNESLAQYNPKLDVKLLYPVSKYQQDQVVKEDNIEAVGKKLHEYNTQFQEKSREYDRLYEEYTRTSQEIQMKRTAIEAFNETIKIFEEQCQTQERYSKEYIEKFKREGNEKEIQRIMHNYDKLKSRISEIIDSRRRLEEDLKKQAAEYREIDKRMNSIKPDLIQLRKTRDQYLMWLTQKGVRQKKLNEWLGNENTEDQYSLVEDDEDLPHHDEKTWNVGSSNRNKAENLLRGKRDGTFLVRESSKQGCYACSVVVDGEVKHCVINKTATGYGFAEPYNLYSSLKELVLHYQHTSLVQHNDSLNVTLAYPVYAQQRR

As a reminder, the IC50 is the concentration needed to halve the response being measured. As to `COc1ccc(C2CC(c3ccccc3)=NN2c2nc(N(C)CCN(C)C)c3ccsc3n2)cc1` (stereo not shown) [Compound 13f, N ^1-(2-(5-(4-Methoxyphenyl)-3-phenyl-4,5-dihydro-1H-pyrazol-1-yl)thieno[2,3-d]pyrimidin-4-yl)-N^1,N^2,N^2-trimethylethane-1,2-diamine], the IC50 in experiment [1] was 920 ± 140 nM; in experiment [2], 2880 ± 430 nM; in experiment [3], > 10000 nM; in experiment [4] (Homo sapiens, A549, Table 2, average of two separate determinations), 2840 ± 90 nM; in experiment [7], 2080 ± 360 nM. In addition, in experiment [4] (several concentrations and exposure times, Fig. 3), the “inhibition of proliferation of A549 cancer cell lines (dose and time dependence)” value is “dose-dependent and time-dependent”. Moreover, the early apoptotic cells in experiment [5] (A549, 1.6 μM, 24 h) is reported as 9.14%. Moreover, the late apoptotic cells in experiment [5] (A549, 1.6 μM, 24 h) came to 7.68%. Further, the “induction of apoptosis (Annexin V-FITC/PI)” value in experiment [5] (A549, 0.2-1.6 μM) is on record as “induce apoptosis in a concentration-dependent manner”. For the same molecule, the “induction of apoptosis (cell morphology, AO staining)” value in experiment [6] is on record as “could induce apoptosis”.
